Experimental data published in patent US20250230153A1, “2,3-DIHYDROBENZO[B][1,4]DIOXIN-6-YL CONTAINING COMPOUNDS USEFUL AS IMMUNOMODULATORS” (BRISTOL-MYERS SQUIBB COMPANY, priority 2021, published 2025).

Molecular target: PD-1/PD-L1 (Homo sapiens (Human), UniProt Q9NZQ7)
Test: PD-1/PD-L1 Homogenous Time-Resolved Fluorescence (HTRF) binding assay
Details: PD-1-Ig (20 nM final)/PD-L1-His (10 nM final) binding assay
Procedure, shortened: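 Compounds pre-incubated 15 min with human PD-L1(18-239)-His (10 nM final), then 15 min with PD-1(25-167)-Ig (20 nM final), in dPBS with 0.1% BSA and 0.05% Tween-20. Detection with Eu-cryptate anti-Ig (1 nM) and APC anti-His (20 nM) after 30 min equilibration; 665/620 nm ratio read.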

Chain of PD-1/PD-L1 (Q9NZQ7 18-239): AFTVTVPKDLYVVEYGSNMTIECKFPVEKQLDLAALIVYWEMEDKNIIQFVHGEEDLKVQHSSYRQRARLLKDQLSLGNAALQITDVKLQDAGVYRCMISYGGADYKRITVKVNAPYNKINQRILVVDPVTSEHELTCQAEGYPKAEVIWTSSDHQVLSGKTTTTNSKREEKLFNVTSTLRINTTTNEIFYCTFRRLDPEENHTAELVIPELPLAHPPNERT

SMILES | IC50
Cc1c(COc2cc(OCCN3CC[C@@H](O)C3)c(CN3CCCC[C@H]3C(=O)O)cc2Cl)cccc1-c1ccc2c(c1)OCCO2 [Example 1023, (S)-1-(5-Chloro-4-((3-(2,3-dihydrobenzo[b][1,4]dioxin-6-yl)-2-methylbenzyl)oxy)-2-(2-((R)-3-hydroxypyrrolidin-1-yl)ethoxy)benzyl)piperidine-2-carboxylic acid] | 4.6 nM
COC(=O)CCSc1cncc(COc2cc(OCc3cccc(-c4ccc5c(c4)OCCO5)c3C)c(Cl)cc2CN2CCCC[C@H]2C(=O)O)c1 [Example 1007, (S)-1-(5-Chloro-4-((3-(2,3-dihydrobenzo[b][1,4]dioxin-6-yl)-2-methylbenzyl)oxy)-2-((5-((3-methoxy-3-oxopropyl)thio)pyridin-3-yl)methoxy)benzyl)piperidine-2-carboxylic acid] | 27.6 nM
Cc1c(COc2cc(OCC3CCCN(C)C3)c(CN[C@@H](CO)C(=O)O)cc2Cl)cccc1-c1ccc2c(c1)OCCO2 (single isomer, unassigned) [Example 2006] | 2.8 nM
Cc1c(COc2cc(OCC(=O)N3CCS(=O)(=O)CC3)c(CN3CCCC[C@H]3C(=O)O)cc2Cl)cccc1-c1ccc2c(c1)OCCO2 [Example 1061, (S)-1-(5-chloro-4-((3-(2,3-dihydrobenzo[b][1,4]dioxin-6-yl)-2-methylbenzyl)oxy)-2-(2-(1,1-dioxidothiomorpholino)-2-oxoethoxy)benzyl)piperidine-2-carboxylic acid] | 455 nM
Cc1cnc(COc2cc(OCc3cccc(-c4ccc5c(c4)OCCO5)c3C)c(Cl)cc2CN[C@H](CO)C(=O)O)cn1 [Example 1001, (R)-2-((5-Chloro-4-((3-(2,3-dihydrobenzo[b][1,4]dioxin-6-yl)-2-methylbenzyl)oxy)-2-((5-methylpyrazin-2-yl)methoxy)benzyl)amino)-3-hydroxypropanoic acid] | 4.5 nM
Cc1c(COc2cc(OC[C@@H](C)CO)c(CNC(C)(CO)CO)cc2Cl)cccc1-c1ccc2c(c1)OCCO2 [Example 1036, (S)-2-((5-Chloro-4-((3-(2,3-dihydrobenzo[b][1,4]dioxin-6-yl)-2-methylbenzyl)oxy)-2-(3-hydroxy-2-methylpropoxy)benzyl)amino)-2-methylpropane-1,3-diol] | 4.6 nM
Cc1c(COc2cc(OC[C@H](C)CO)c(CN[C@](C)(CO)C(=O)O)cc2Cl)cccc1-c1ccc2c(c1)OCCO2 [Example 1032, (R)-2-((5-Chloro-4-((3-(2,3-dihydrobenzo[b][1,4]dioxin-6-yl)-2-methylbenzyl)oxy)-2-((R)-3-hydroxy-2-methylpropoxy)benzyl)amino)-3-hydroxy-2-methylpropanoic acid] | 4.4 nM
Cc1c(COc2cc(OCc3cncc(C(=O)NS(C)(=O)=O)c3)c(CN3CCCC[C@H]3C(=O)O)cc2Cl)cccc1-c1ccc2c(c1)OCCO2 [Example 1021, (S)-1-(5-Chloro-4-((3-(2,3-dihydrobenzo[b][1,4]dioxin-6-yl)-2-methylbenzyl)oxy)-2-((5-((methylsulfonyl)carbamoyl)pyridin-3-yl)methoxy)benzyl)piperidine-2-carboxylic acid] | 5.7 nM
Cc1c(COc2cc(OCC3CCCN(C)C3)c(CN[C@@H](CO)C(=O)O)cc2Cl)cccc1-c1ccc2c(c1)OCCO2 (stereo partly drawn) [Example 2004, (2S)-2-((5-chloro-4-((3-(2,3-dihydrobenzo[b][1,4]dioxin-6-yl)-2-methylbenzyl)oxy)-2-((1-methylpiperidin-3-yl)methoxy)benzyl)amino)-3-hydroxypropanoic acid] | 5.8 nM
Cc1c(COc2cc(OCCN3CCOCC3)c(CN3CCCC[C@H]3C(=O)O)cc2Cl)cccc1-c1ccc2c(c1)OCCO2 [Example 1038, (S)-1-(5-Chloro-4-((3-(2,3-dihydrobenzo[b][1,4]dioxin-6-yl)-2-methylbenzyl)oxy)-2-(2-morpholinoethoxy)benzyl)piperidine-2-carboxylic acid] | 5.7 nM
